Laboratory results as given in PMC5218480 (PLoS ONE, 2017).

Test system: MV-4-11 cells
Experiment: Gene expression microarray analysis (Affymetrix PrimeView) and GSEA
Assay type: cell-based, human
Set-up: RFU PODN (11730768_x_at) / Fold change /veh PODN (11730768_x_at) / RFU LINC00158 (11744669_a_at) / Fold change /veh LINC00158 (11744669_a_at) / RFU DUSP10 (11751237_a_at) / Fold change /veh DUSP10 (11751237_a_at) / RFU ID3 (11757404_x_at) / Fold change /veh ID3 (11757404_x_at) / RFU PLEKHG5 (11737974_s_at) / Fold change /veh PLEKHG5 (11737974_s_at) / RFU LRRC4B (11730491_at) / Fold change /veh LRRC4B (11730491_at) / RFU GIMAP4 (11747438_a_at) / Fold change /veh GIMAP4 (11747438_a_at) / RFU KRT8 (11758183_x_at) / Fold change /veh KRT8 (11758183_x_at) / RFU CNN1 (11734310_a_at) / Fold change /veh CNN1 (11734310_a_at) / RFU VPS37D (11726825_at) / Fold change /veh VPS37D (11726825_at) / RFU C10orf10 (11716522_x_at) / Fold change /veh C10orf10 (11716522_x_at) / RFU KIR2DL2 /// KIR2DL4 /// KIR2DL5A /// KIR2DL5B /// KIR2DS1 /// KIR2DS2 /// KIR2DS3 /// KIR2DS4 /// KIR3DL3 /// KIR3DL3 /// KIR3DS1 (11738374_at) / Fold change /veh KIR2DL2 /// KIR2DL4 /// KIR2DL5A /// KIR2DL5B /// KIR2DS1 /// KIR2DS2 /// KIR2DS3 /// KIR2DS4 /// KIR3DL3 /// KIR3DL3 /// KIR3DS1 (11738374_at) / RFU C1QL1 (11718748_at) / Fold change /veh C1QL1 (11718748_at) / RFU TMPRSS4 (11747572_a_at) / Fold change /veh TMPRSS4 (11747572_a_at) / RFU HAMP (11756126_x_at) / Fold change /veh HAMP (11756126_x_at) / RFU RNFT2 (11725882_a_at) / Fold change /veh RNFT2 (11725882_a_at) / RFU NR4A2 (11747474_a_at) / Fold change /veh NR4A2 (11747474_a_at) / RFU ABCC12 (11746883_a_at) / Fold change /veh ABCC12 (11746883_a_at) / RFU TMEM136 (11760407_x_at) / Fold change /veh TMEM136 (11760407_x_at) / RFU CLDN22 /// WWC2 (11732394_at) / Fold change /veh CLDN22 /// WWC2 (11732394_at) / RFU HLA-DPB1 (11760878_x_at) / Fold change /veh HLA-DPB1 (11760878_x_at) / RFU SPINT1 (11716480_a_at) / Fold change /veh SPINT1 (11716480_a_at) / RFU GAP43 (11754022_s_at) / Fold change /veh GAP43 (11754022_s_at) / RFU A4GNT (11735810_at) / Fold change /veh A4GNT (11735810_at) / RFU PRB3 (11715151_x_at) / Fold change /veh PRB3 (11715151_x_at) / RFU TUBB4B (11761932_at) / Fold change /veh TUBB4B (11761932_at) / RFU CAPN14 (11732068_a_at) / Fold change /veh CAPN14 (11732068_a_at) / RFU TMCC2 (11721928_a_at) / Fold change /veh TMCC2 (11721928_a_at) / RFU IRGQ (11745062_a_at) / Fold change /veh IRGQ (11745062_a_at) / RFU FAM174B (11720279_a_at) / Fold change /veh FAM174B (11720279_a_at) / RFU TMPRSS4 (11748680_a_at) / Fold change /veh TMPRSS4 (11748680_a_at) / RFU FAM212B (11763350_a_at) / Fold change /veh FAM212B (11763350_a_at) / RFU PLEKHG5 (11743358_a_at) / Fold change /veh PLEKHG5 (11743358_a_at) / RFU ZSCAN30 (11745921_a_at) / Fold change /veh ZSCAN30 (11745921_a_at) / RFU CMKLR1 (11741424_a_at) / Fold change /veh CMKLR1 (11741424_a_at) / RFU LOC101060620 /// MAPK8IP1 (11723275_at) / Fold change /veh LOC101060620 /// MAPK8IP1 (11723275_at) / RFU SPTSSB (11747773_x_at) / Fold change /veh SPTSSB (11747773_x_at) / RFU PRSS12 (11739890_at) / Fold change /veh PRSS12 (11739890_at) / RFU BIN1 (11741810_x_at) / Fold change /veh BIN1 (11741810_x_at) / RFU WNT11 (11732464_a_at) / Fold change /veh WNT11 (11732464_a_at) / RFU C10orf10 (11716521_a_at) / Fold change /veh C10orf10 (11716521_a_at) / RFU C5orf56 (11738089_at) / Fold change /veh C5orf56 (11738089_at) / RFU CYB561 (11721691_x_at) / Fold change /veh CYB561 (11721691_x_at) / RFU ANKRD19P (11752326_a_at) / Fold change /veh ANKRD19P (11752326_a_at) / RFU OR2T12 /// OR2T33 /// OR2T8 (11738714_s_at) / Fold change /veh OR2T12 /// OR2T33 /// OR2T8 (11738714_s_at) / RFU VCAN (11748164_a_at) / Fold change /veh VCAN (11748164_a_at) / RFU JSRP1 (11732532_at) / Fold change /veh JSRP1 (11732532_at) / RFU KRTAP10-11 (11738290_x_at) / Fold change /veh KRTAP10-11 (11738290_x_at) / RFU MYO3A (11730013_a_at) / Fold change /veh MYO3A (11730013_a_at) / RFU EBF3 (11725865_a_at) / Fold change /veh EBF3 (11725865_a_at) / RFU CAMK2N1 (11719241_x_at) / Fold change /veh CAMK2N1 (11719241_x_at) / RFU C5orf56 (11738088_a_at) / Fold change /veh C5orf56 (11738088_a_at) / RFU OLFML3 (11715873_a_at) / Fold change /veh OLFML3 (11715873_a_at) / RFU LOC100653217 /// NTM (11731650_a_at) / Fold change /veh LOC100653217 /// NTM (11731650_a_at) / RFU MAPK11 (11762145_a_at) / Fold change /veh MAPK11 (11762145_a_at) / RFU FIZ1 (11724087_x_at) / Fold change /veh FIZ1 (11724087_x_at) / RFU OASL (11726364_x_at) / Fold change /veh OASL (11726364_x_at) / RFU SOX15 (11748057_x_at) / Fold change /veh SOX15 (11748057_x_at) / RFU CD79A (11719716_a_at) / Fold change /veh CD79A (11719716_a_at) / RFU HIST1H1D (11736915_at) / Fold change /veh HIST1H1D (11736915_at) / RFU CASKIN2 (11723855_a_at) / Fold change /veh CASKIN2 (11723855_a_at) / RFU LOC730098 (11760151_x_at) / Fold change /veh LOC730098 (11760151_x_at) / RFU OR4N2 (11742367_at) / Fold change /veh OR4N2 (11742367_at) / RFU PRRT2 (11749266_a_at) / Fold change /veh PRRT2 (11749266_a_at) / RFU SNX32 (11753110_a_at) / Fold change /veh SNX32 (11753110_a_at) / RFU CDHR5 (11726645_a_at) / Fold change /veh CDHR5 (11726645_a_at) / RFU RCAN1 (11760418_a_at) / Fold change /veh RCAN1 (11760418_a_at) / RFU FAM167A (11723789_a_at) / Fold change /veh FAM167A (11723789_a_at) / RFU FAM26E (11764081_at) / Fold change /veh FAM26E (11764081_at) / RFU ISYNA1 (11749810_s_at) / Fold change /veh ISYNA1 (11749810_s_at) / RFU ACY1 (11761880_at) / Fold change /veh ACY1 (11761880_at) / RFU 11764098_at / Fold change /veh 11764098_at / RFU SAMD14 (11745864_x_at) / Fold change /veh SAMD14 (11745864_x_at) / RFU NPB (11741838_a_at) / Fold change /veh NPB (11741838_a_at) / RFU TMPRSS6 (11731388_a_at) / Fold change /veh TMPRSS6 (11731388_a_at) / RFU KRTAP10-2 (11738614_at) / Fold change /veh KRTAP10-2 (11738614_at) / RFU ARHGAP8 /// PRR5-ARHGAP8 (11727945_x_at) / Fold change /veh ARHGAP8 /// PRR5-ARHGAP8 (11727945_x_at) / RFU KRTAP5-7 /// NADSYN1 (11734609_at) / Fold change /veh KRTAP5-7 /// NADSYN1 (11734609_at) / RFU RASL12 (11751679_a_at) / Fold change /veh RASL12 (11751679_a_at) / RFU CDKN2B (11736163_a_at) / Fold change /veh CDKN2B (11736163_a_at) / RFU PRF1 (11729649_at) / Fold change /veh PRF1 (11729649_at) / RFU, ZNF638 /// ZNF638-IT1 / Fold change vs veh, ZNF638 /// ZNF638-IT1 / RFU, PANK3 / Fold change vs veh, PANK3 / RFU, SH3YL1 / Fold change vs veh, SH3YL1 / RFU, ZEB2 / Fold change vs veh, ZEB2 / RFU, NRIP1 / Fold change vs veh, NRIP1 / RFU, PTTG1IP / Fold change vs veh, PTTG1IP / RFU, CAPN2 / Fold change vs veh, CAPN2 / RFU, MED14 / Fold change vs veh, MED14 / RFU, SNORA58 / Fold change vs veh, SNORA58 / RFU, C1orf63 / Fold change vs veh, C1orf63 / RFU, LRRFIP1 / Fold change vs veh, LRRFIP1 / RFU, NDUFAF7 / Fold change vs veh, NDUFAF7 / RFU, SLC12A2 / Fold change vs veh, SLC12A2 / RFU, IBTK / Fold change vs veh, IBTK / RFU, ESF1 / Fold change vs veh, ESF1 / Fold change vs veh, TMEM50B / RFU, TAOK1 / Fold change vs veh, TAOK1 / RFU, ACBD3 / Fold change vs veh, ACBD3 / RFU, TMA16 / Fold change vs veh, TMA16 / RFU, RWDD3 / Fold change vs veh, RWDD3 / RFU, BCAT1 / Fold change vs veh, BCAT1 / RFU, EDEM3 / Fold change vs veh, EDEM3 / RFU, TMEM33 / Fold change vs veh, TMEM33 / RFU, WDR75 / Fold change vs veh, WDR75 / RFU, AHCTF1 / Fold change vs veh, AHCTF1 / RFU, TFRC / Fold change vs veh, TFRC / RFU, ZDHHC17 / Fold change vs veh, ZDHHC17 / RFU, NOM1 / Fold change vs veh, NOM1 / RFU, ARL8B / Fold change vs veh, ARL8B / RFU, ZBTB11 / Fold change vs veh, ZBTB11 / RFU, TAMM41 / Fold change vs veh, TAMM41 / RFU, KIAA1704 /// LOC100996395 / Fold change vs veh, KIAA1704 /// LOC100996395 / RFU, ING1 / Fold change vs veh, ING1 / RFU, TRMT61B / Fold change vs veh, TRMT61B / RFU, FUBP3 / Fold change vs veh, FUBP3 / RFU, TP53 / Fold change vs veh, TP53 / RFU, TNKS2 / Fold change vs veh, TNKS2 / RFU, ZFP14 / Fold change vs veh, ZFP14 / RFU, ACTR2 / Fold change vs veh, ACTR2 / RFU, PPP3R1 / Fold change vs veh, PPP3R1 / RFU, PIK3R1 / Fold change vs veh, PIK3R1 / RFU, HNRNPA1 / Fold change vs veh, HNRNPA1 / RFU, RNF170 / Fold change vs veh, RNF170 / RFU, ZNF28 / Fold change vs veh, ZNF28 / RFU, RNGTT / Fold change vs veh, RNGTT / RFU, OGT / Fold change vs veh, OGT / RFU, BRD1 / Fold change vs veh, BRD1 / RFU, MARS / Fold change vs veh, MARS / RFU, ZNF655 / Fold change vs veh, ZNF655 / RFU, FAHD1 / Fold change vs veh, FAHD1 / RFU, BDP1 / Fold change vs veh, BDP1 / RFU, LRRCC1 / Fold change vs veh, LRRCC1 / RFU, ARID1A / Fold change vs veh, ARID1A / RFU, ZNF146 / Fold change vs veh, ZNF146 / RFU, ZNF330 / Fold change vs veh, ZNF330 / RFU, GPN3 / Fold change vs veh, GPN3 / RFU, C9orf123 / Fold change vs veh, C9orf123 / RFU, N4BP2L2 / Fold change vs veh, N4BP2L2 / RFU, ARFIP1 / Fold change vs veh, ARFIP1 / RFU, FAM179B / Fold change vs veh, FAM179B / RFU, BCL10 / Fold change vs veh, BCL10 / RFU, UHRF1BP1L / Fold change vs veh, UHRF1BP1L / RFU, BET1 / Fold change vs veh, BET1 / RFU, CNOT2 / Fold change vs veh, CNOT2 / RFU, ZNF268 / Fold change vs veh, ZNF268 / Fold change vs veh, ZNF507 / RFU, DGCR2 / Fold change vs veh, DGCR2 / RFU, WDSUB1 / Fold change vs veh, WDSUB1 / Fold change vs veh, HSP90B1 /// MIR3652 / RFU, ADSS / Fold change vs veh, ADSS / RFU, GK / Fold change vs veh, GK / RFU, ZNF148 / Fold change vs veh, ZNF148 / RFU, TAF9 / Fold change vs veh, TAF9 / RFU, SLC1A5 / Fold change vs veh, SLC1A5 / RFU, SLMO2 / Fold change vs veh, SLMO2 / RFU, ABCC4 / Fold change vs veh, ABCC4 / RFU, LOC101060439 /// RAP1B / Fold change vs veh, LOC101060439 /// RAP1B / RFU, RFX7 / Fold change vs veh, RFX7 / RFU, GTPBP10 / Fold change vs veh, GTPBP10 / RFU, CNEP1R1 / Fold change vs veh, CNEP1R1 / RFU, BIVM-ERCC5 /// ERCC5 / Fold change vs veh, BIVM-ERCC5 /// ERCC5 / RFU, ILF3 / Fold change vs veh, ILF3 / RFU 11762660_at / Fold change /veh 11762660_at / RFU VCAN (11757783_s_at) / Fold change /veh VCAN (11757783_s_at) / RFU DDX43 (11728927_at) / Fold change /veh DDX43 (11728927_at) / RFU KRT8 (11758188_x_at) / Fold change /veh KRT8 (11758188_x_at) / RFU NKD1 (11759106_at) / Fold change /veh NKD1 (11759106_at) / RFU SRD5A1 (11742802_a_at) / Fold change /veh SRD5A1 (11742802_a_at) / RFU TPSAB1 /// TPSB2 (11721975_s_at) / Fold change /veh TPSAB1 /// TPSB2 (11721975_s_at) / RFU GSTM3 (11746129_a_at) / Fold change /veh GSTM3 (11746129_a_at) / RFU IL23R (11737362_x_at) / Fold change /veh IL23R (11737362_x_at) / RFU TMEM51 (11727254_a_at) / Fold change /veh TMEM51 (11727254_a_at) / RFU PIWIL2 (11732686_x_at) / Fold change /veh PIWIL2 (11732686_x_at) / RFU ORM1 (11744905_x_at) / Fold change /veh ORM1 (11744905_x_at) / RFU CCDC152 (11743942_at) / Fold change /veh CCDC152 (11743942_at) / RFU ECM1 (11717891_a_at) / Fold change /veh ECM1 (11717891_a_at) / RFU IL23R (11748794_a_at) / Fold change /veh IL23R (11748794_a_at) / RFU TNFAIP8L3 (11732012_x_at) / Fold change /veh TNFAIP8L3 (11732012_x_at) / RFU MBOAT4 (11741988_at) / Fold change /veh MBOAT4 (11741988_at) / RFU 11764193_at / Fold change /veh 11764193_at / RFU TMEM53 (11763286_at) / Fold change /veh TMEM53 (11763286_at) / RFU MAGEB2 (11727129_at) / Fold change /veh MAGEB2 (11727129_at) / RFU TMEM200A (11744735_a_at) / Fold change /veh TMEM200A (11744735_a_at) / RFU CCDC152 (11751479_a_at) / Fold change /veh CCDC152 (11751479_a_at) / RFU FAM211A (11726209_a_at) / Fold change /veh FAM211A (11726209_a_at) / RFU RGS16 (11746705_a_at) / Fold change /veh RGS16 (11746705_a_at) / RFU VCAN (11755009_s_at) / Fold change /veh VCAN (11755009_s_at) / RFU RHOB (11743442_s_at) / Fold change /veh RHOB (11743442_s_at) / RFU RGS16 (11720943_a_at) / Fold change /veh RGS16 (11720943_a_at) / RFU RGS16 (11720944_at) / Fold change /veh RGS16 (11720944_at) / RFU, VPS4B / Fold change vs veh, VPS4B / RFU, CREB1 / Fold change vs veh, CREB1 / RFU, DNAJC13 / Fold change vs veh, DNAJC13 / RFU, GNAQ / Fold change vs veh, GNAQ / RFU, CDK5R1 / Fold change vs veh, CDK5R1 / RFU, ZRANB3 / Fold change vs veh, ZRANB3 / RFU, CUL4A / Fold change vs veh, CUL4A / RFU, CCNY / Fold change vs veh, CCNY / RFU, UFL1 / Fold change vs veh, UFL1 / RFU, COG3 / Fold change vs veh, COG3 / RFU, DIAPH2 / Fold change vs veh, DIAPH2 / RFU, SKA2 / Fold change vs veh, SKA2 / RFU, AFF3 / Fold change vs veh, AFF3 / RFU, LMF1 / Fold change vs veh, LMF1 / RFU, IPO11 / Fold change vs veh, IPO11 / RFU, DFFB / Fold change vs veh, DFFB / RFU, FOXP1 / Fold change vs veh, FOXP1 / RFU, CARD8 / Fold change vs veh, CARD8 / RFU, STRN3 / Fold change vs veh, STRN3 / RFU, ADK / Fold change vs veh, ADK / RFU, RASSF2 / Fold change vs veh, RASSF2 / RFU, WIPF1 / Fold change vs veh, WIPF1 / RFU, LARP1B / Fold change vs veh, LARP1B / RFU, RASA1 / Fold change vs veh, RASA1 / RFU, RB1 / Fold change vs veh, RB1 / RFU, PPFIA1 / Fold change vs veh, PPFIA1 / RFU, MAT2A / Fold change vs veh, MAT2A / RFU, CCT5 / Fold change vs veh, CCT5 / RFU, WDR92 / Fold change vs veh, WDR92 / RFU, CUX1 / Fold change vs veh, CUX1 / RFU, TTC7A / Fold change vs veh, TTC7A / RFU, TMEM135 / Fold change vs veh, TMEM135 / RFU, DEPTOR / Fold change vs veh, DEPTOR / RFU, CPM / Fold change vs veh, CPM / RFU, DNAJB6 / Fold change vs veh, DNAJB6 / RFU, CACNA2D3 / Fold change vs veh, CACNA2D3 / RFU, DTX4 / Fold change vs veh, DTX4 / RFU, TFCP2 / Fold change vs veh, TFCP2 / RFU, GMCL1 /// GMCL1P1 / Fold change vs veh, GMCL1 /// GMCL1P1 / RFU, AEBP2 / Fold change vs veh, AEBP2 / RFU, SNHG1 /// SNORD22 /// SNORD25 /// SNORD26 /// SNORD27 /// SNORD28 /// SNORD29 /// SNORD31 / Fold change vs veh, SNHG1 /// SNORD22 /// SNORD25 /// SNORD26 /// SNORD27 /// SNORD28 /// SNORD29 /// SNORD31 / Fold change (Aza/veh), C12orf56 (ProbeSet 11735607_a_at) / Fold change (ACY-1035/veh), C12orf56 (ProbeSet 11735607_a_at) / Fold change (Aza/veh), FGFR1OP (ProbeSet 11751329_s_at) / Fold change (ACY-1035/veh), FGFR1OP (ProbeSet 11751329_s_at) / Fold change (Aza/veh), VPS36 (ProbeSet 11739960_a_at) / Fold change (ACY-1035/veh), VPS36 (ProbeSet 11739960_a_at) / RFU SYPL1 (11715823_x_at) / Fold change /veh SYPL1 (11715823_x_at) / RFU IGFBP7 (11715501_s_at) / Fold change /veh IGFBP7 (11715501_s_at) / RFU REEP3 (11722064_at) / Fold change /veh REEP3 (11722064_at) / RFU IGLL1 (11728026_x_at) / Fold change /veh IGLL1 (11728026_x_at): dose or concentration left out as unconfirmed
Details: MV-4-11 cells, 48 hours

SMILES: Nc1ccc(-c2cccs2)cc1NC(=O)c1ccc2c(c1)cc(C1CC1)n2CCN1CCOCC1 [ACY-1035]
- Fold change /veh LOC101060620 /// MAPK8IP1 (11723275_at): 0.98
